From the supplement of paper PMC4862054

How the values were obtained:
Conditions in all cases: incubation time: 72 h
[1] = test system: BT-474; experiment: normalised viability (% of control), CellTiter-Blue; higher = more viable cells (about 100 = DMSO control)
How it was run: (§1)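 Each entry is normalised viability at a single listed concentration within a series. It comes from breast cancer cell lines incubated 72 h with compound in 384-well plates, then measured with CellTiter-Blue fluorescence at 560/590 nm. Every plate was normalised between vehicle (100) and a positive kill control (0).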

[2] = test system: CAL-120; experiment: as above
How it was run: as §1

[3] = test system: CAL-148; experiment: as above
How it was run: as §1

[4] = test system: CAL-51; experiment: as above
How it was run: as §1

[5] = test system: DU-4475; experiment: as above
How it was run: as §1

[6] = test system: HCC1143; experiment: as above
How it was run: as §1

[7] = test system: HCC1599; experiment: as above
How it was run: as §1

[8] = test system: HCC1937; experiment: as above
How it was run: as §1

[9] = test system: HDQ-P1; experiment: as above
How it was run: as §1

[10] = test system: Hs578T; experiment: as above
How it was run: as §1

[11] = test system: MDA-MB-231; experiment: as above
How it was run: as §1

[12] = test system: MDA-MB-436; experiment: as above
How it was run: as §1

[13] = test system: MFM-223; experiment: as above
How it was run: as §1

[14] = test system: SK-BR-3; experiment: as above
How it was run: as §1

[15] = test system: BT-474; experiment: drug sensitivity score (DSS), CellTiter-Blue viability (DSS (AUC-based score)); higher = stronger viability inhibition; extreme values may be limits of the assay
Protocol: (§2)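 DSRT with the CellTiter-Blue (resazurin reduction) viability readout, fluorescence 560/590 nm, 72 h incubation. Plates were normalised to DMSO and benzethonium chloride controls. DSS is computed from the area under the fitted dose-response curve (5 or 9 concentrations).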

[16] = test system: CAL-120; experiment: as above
Protocol: as §2

[17] = test system: CAL-148; experiment: as above
Protocol: as §2

[18] = test system: CAL-51; experiment: as above
Protocol: as §2

[19] = test system: DU-4475; experiment: as above
Protocol: as §2

[20] = test system: HCC1143; experiment: as above
Protocol: as §2

[21] = test system: HCC1599; experiment: as above
Protocol: as §2

[22] = test system: HCC1937; experiment: as above
Protocol: as §2

[23] = test system: MDA-MB-231; experiment: as above
Protocol: as §2

[24] = test system: MDA-MB-453; experiment: as above
Protocol: as §2

COc1cc(OC2CCN(C)CC2)ccc1Nc1ncc2c(n1)n(C1CCCC1)c(=O)n2C [AZ 3146]
normalised viability [%]
Conditions | 3 nM | 10 nM | 30 nM | 100 nM | 1000 nM | 10000 nM
[1] | – | 110 | – | – | 96.2 | 122
[2] | – | 115 | – | – | 109 | 76.5
[3] | 111 | – | 102 | 115 | – | –
[4] | 97.5 | – | 88.7 | 87.8 | – | –
[5] | 111 | – | 90 | 100 | – | –
[6] | – | 132 | – | – | 126 | 95.3
[7] | – | 107 | – | – | 121 | 111
[8] | – | 124 | – | – | 98 | 92
[9] | 80.8 | – | 100 | 118 | – | –
[10] | – | 111 | – | – | 109 | 80.1
[11] | – | 96.5 | – | – | 82.3 | 45.8
[12] | – | 102 | – | – | 94.4 | 85.6
[13] | – | 102 | – | – | 102 | 84.4
[14] | – | 104 | – | – | 86.8 | 74.5

Conditions | drug sensitivity score
[15] | 0
[16] | 0.478
[17] | 4.7
[18] | 8.18
[19] | 1.56
[20] | 0
[21] | 0
[22] | 0
[23] | 3.65
[24] | 3.31

COCC1(CO)C(=O)C2CCN1CC2 (centres undefined) [Prima-1 Met]
normalised viability [%]
Conditions | 3 nM | 10 nM | 30 nM | 100 nM | 1000 nM | 10000 nM
[1] | – | 109 | – | – | 98.5 | 40.4
[2] | – | 85 | – | – | 99.8 | 102
[3] | 93.3 | – | 93 | 89.2 | – | –
[4] | 93.7 | – | 93.2 | 96.4 | – | –
[5] | 109 | – | 88.4 | 122 | – | –
[6] | – | 82.3 | – | – | 73.2 | 75.2
[7] | – | 93.4 | – | – | 120 | 106
[8] | – | 97.8 | – | – | 73.8 | 75.4
[9] | 91.3 | – | 81.2 | 74.4 | – | –
[10] | – | 110 | – | – | 106 | 88.9
[11] | – | 95.4 | – | – | 92.7 | 88.7
[12] | – | 86.9 | – | – | 81.9 | 104
[13] | – | 103 | – | – | 91.3 | 111
[14] | – | 96.1 | – | – | 101 | 90.8

Conditions | drug sensitivity score
[15] | 2.5
[16] | 0
[17] | 0
[18] | 0
[19] | 0
[20] | 0
[21] | 0
[22] | 3.72
[23] | 0
[24] | 0
